Measured values from patent US10150771B2, “Triazolopyrazinones as PDE1 inhibitors” (H. Lundbeck A/S, priority 2014, dated 2018).

Assays:
Assay type in all cases: biochemical
PDE1A = PDE1A (Homo sapiens, UniProt P54750); test: PDE1 inhibition assay (SPA), PDE1A; conditions: for IC50: concentration required to reach 50% inhibition of the enzyme, 15 nM tritium labelled cAMP, read-out: PDE1A inhibition (nM or %): IC50; for inhibition at 10 µM: 1 h, % inhibition of the enzyme at a concentration of 10 micro molar of the compound, read-out: PDE1A inhibition (nM or %): % inhib
Chain of PDE1A (P54750 whole entry): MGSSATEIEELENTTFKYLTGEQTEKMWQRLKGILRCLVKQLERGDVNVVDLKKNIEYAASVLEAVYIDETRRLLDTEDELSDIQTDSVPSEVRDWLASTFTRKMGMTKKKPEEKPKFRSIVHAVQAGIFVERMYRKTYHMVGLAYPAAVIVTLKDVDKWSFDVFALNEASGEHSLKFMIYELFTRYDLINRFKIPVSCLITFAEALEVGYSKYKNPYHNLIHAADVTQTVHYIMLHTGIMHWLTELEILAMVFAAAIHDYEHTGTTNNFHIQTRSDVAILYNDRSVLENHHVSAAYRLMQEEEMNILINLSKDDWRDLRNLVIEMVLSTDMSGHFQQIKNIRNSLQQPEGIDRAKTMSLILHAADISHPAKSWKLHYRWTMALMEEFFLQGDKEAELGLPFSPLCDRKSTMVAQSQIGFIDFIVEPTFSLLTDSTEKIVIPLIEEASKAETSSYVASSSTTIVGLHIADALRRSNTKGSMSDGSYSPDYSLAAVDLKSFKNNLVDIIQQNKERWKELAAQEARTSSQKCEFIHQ
Protocol: (§1) PDE1 Inhibition Assay PDE1A, PDE1B and PDE1C assays were performed as follows: the assays were performed in 60 μL samples containing a fixed amount of the PDE1 enzym1 (sufficient to convert 20-25% of the cyclic nucleotide substrate), a buffer (50 mM HEPES pH 7.6; 10 mM MgCl2; 0.02% Tween20), 0.1 mg/ml BSA, 15 nM tritium labelled cAMP and varying amounts of inhibitors. Reactions were initiated by addition of the cyclic nucleotide substrate, and reactions were allowed to proceed for 1 h at room temperature before being terminated through mixing with 20 μL (0.2 mg) yttrium silicate SPA beads (PerkinElmer). The beads were allowed to settle for 1 h in the dark before the plates were counted in a Wallac 1450 Microbeta counter. The measured signals were converted to activity relative to an uninhibited control (100%) and IC50 values were calculated using XIFit (model 205, IDBS).

PDE1C = PDE1C (Homo sapiens, UniProt Q14123); test: PDE1 inhibition assay (SPA), PDE1C; conditions: for IC50: concentration required to reach 50% inhibition of the enzyme, 15 nM tritium labelled cAMP, read-out: PDE1C inhibition (nM or %): IC50
Chain of PDE1C (Q14123 whole entry): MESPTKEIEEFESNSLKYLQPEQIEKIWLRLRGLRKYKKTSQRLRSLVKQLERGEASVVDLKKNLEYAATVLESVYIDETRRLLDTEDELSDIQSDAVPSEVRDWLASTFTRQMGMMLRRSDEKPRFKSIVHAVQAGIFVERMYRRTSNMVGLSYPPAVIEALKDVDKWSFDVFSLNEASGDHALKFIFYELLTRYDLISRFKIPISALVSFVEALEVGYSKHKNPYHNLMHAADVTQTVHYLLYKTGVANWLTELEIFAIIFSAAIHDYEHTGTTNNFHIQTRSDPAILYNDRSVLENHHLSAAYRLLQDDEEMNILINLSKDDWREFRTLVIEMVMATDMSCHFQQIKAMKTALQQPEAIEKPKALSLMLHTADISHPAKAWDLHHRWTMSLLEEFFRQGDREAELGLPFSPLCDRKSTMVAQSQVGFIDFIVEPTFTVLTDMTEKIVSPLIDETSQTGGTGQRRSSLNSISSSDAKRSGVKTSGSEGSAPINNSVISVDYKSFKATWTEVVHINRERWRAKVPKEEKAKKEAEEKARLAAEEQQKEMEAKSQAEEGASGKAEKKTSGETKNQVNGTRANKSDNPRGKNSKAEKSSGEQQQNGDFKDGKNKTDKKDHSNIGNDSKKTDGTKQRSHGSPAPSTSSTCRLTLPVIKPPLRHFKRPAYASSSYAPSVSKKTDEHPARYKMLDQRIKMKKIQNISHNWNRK
Protocol: as §1

PDE1B = PDE1B (Homo sapiens, UniProt Q01064); test: PDE1 inhibition assay (SPA), PDE1B; conditions: for IC50: concentration required to reach 50% inhibition of the enzyme, 15 nM tritium labelled cAMP, read-out: PDE1B inhibition (nM or %): IC50; for inhibition at 10 µM: 1 h, % inhibition of the enzyme at a concentration of 10 micro molar of the compound, read-out: PDE1B inhibition (nM or %): % inhib
Chain of PDE1B (Q01064 whole entry): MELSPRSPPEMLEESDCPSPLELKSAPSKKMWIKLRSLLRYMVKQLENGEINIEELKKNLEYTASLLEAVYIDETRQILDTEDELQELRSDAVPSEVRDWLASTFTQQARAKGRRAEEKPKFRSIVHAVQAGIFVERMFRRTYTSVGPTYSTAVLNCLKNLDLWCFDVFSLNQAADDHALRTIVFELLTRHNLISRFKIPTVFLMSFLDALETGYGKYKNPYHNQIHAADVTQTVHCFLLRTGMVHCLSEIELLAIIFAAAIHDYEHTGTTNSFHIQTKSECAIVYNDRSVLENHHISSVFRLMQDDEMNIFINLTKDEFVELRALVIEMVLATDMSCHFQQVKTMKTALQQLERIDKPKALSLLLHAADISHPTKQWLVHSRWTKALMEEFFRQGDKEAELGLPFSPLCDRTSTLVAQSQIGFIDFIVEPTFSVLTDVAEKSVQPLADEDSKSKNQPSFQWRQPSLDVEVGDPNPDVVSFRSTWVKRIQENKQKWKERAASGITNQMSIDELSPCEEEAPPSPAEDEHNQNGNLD
Protocol: as §1

Row | Structure (SMILES) | IC50 (PDE1A) [nM] | IC50 (PDE1C) [nM] | IC50 (PDE1B) [nM] | inhibition at 10 µM (PDE1A) [%] | inhibition at 10 µM (PDE1B) [%] | PDE1C inhibition (nM or %): % inhib (PDE1C; % inhibition of the enzyme at a concentration of 10 micro molar of the compound) [%]
1 | Cc1ccc(Cc2cn3c(C4CCOCC4)nnc3c(=O)n2Cc2cccc(F)c2)cc1 [7-(3-fluorobenzyl)-6-(4-methylbenzyl)-3-(tetrahydro-2H-pyran-4-yl)-[1,2,4]triazolo[4,3-a]pyrazin-8(7H)-one] | 7 | 1 | 6 |  |  | 
2 | CCCc1nnc2c(=O)n(Cc3cccc(F)c3)cc(CC)n12 [5-ethyl-7-(3-fluorobenzyl)-3-propyl-[1,2,4]triazolo[4,3-a]pyrazin-8(7H)-one] | 858 | 180 | 510 |  |  | 
3 | O=c1c2nnc(C3CCOCC3)n2cc(Cc2ccccc2)n1CC1CCCC1 [6-benzyl-7-(cyclopentylmethyl)-3-(tetrahydro-2H-pyran-4-yl)-[1,2,4]triazolo[4,3-a]pyrazin-8(7H)-one] | 65 | 5 | 46 |  |  | 
4 | O=c1c2nnc(C3CCCCC3)n2ccn1Cc1cccc(F)c1 [3-Cyclohexyl-7-(3-fluorobenzyl)-[1,2,4]triazolo[4,3-a]pyrazin-8(7H)-one] | 810 | 120 | 590 |  |  | 
5 | CC(F)(F)c1nnc2c(=O)n(Cc3cccc(F)c3)ccn12 [3-(1,1-Difluoroethyl)-7-(3-fluorobenzyl)-[1,2,4]triazolo[4,3-a]pyrazin-8(7H)-one] | 2500 | 550 | 2700 |  |  | 
6 | O=c1c2nnc(C3CCOCC3)n2cc(Br)n1CC1CCCC1 [6-bromo-7-(cyclopentylmethyl)-3-(tetrahydro-2H-pyran-4-yl)-[1,2,4]triazolo[4,3-a]pyrazin-8(7H)-one] | 164 | 6 | 140 |  |  | 
7 | COc1ccc(Cn2c(C)cn3c(C4CCOCC4)nnc3c2=O)cc1 [7-(4-methoxybenzyl)-6-methyl-3-(tetrahydro-2H-pyran-4-yl)-[1,2,4]triazolo[4,3-a]pyrazin-8(7H)-one] | 54 | 37 | 34 |  |  | 
8 | O=c1c2nnc(C3CCOCC3)n2cc(Br)n1Cc1cccc(F)c1 [6-bromo-7-(3-fluorobenzyl)-3-(tetrahydro-2H-pyran-4-yl)-[1,2,4]triazolo[4,3-a]pyrazin-8(7H)-one] | 114 | 24 | 150 |  |  | 
9 | O=c1c2nnc(C3CCOCC3)n2cc(Cc2ccc(F)cc2)n1CC1CCCCC1 [7-(cyclohexylmethyl)-6-(4-fluorobenzyl)-3-(tetrahydro-2H-pyran-4-yl)-[1,2,4]triazolo[4,3-a]pyrazin-8(7H)-one] | 12 | 6 | 17 |  |  | 
10 | O=c1c2nnc([C@H]3CC[C@@H](O)CC3)n2ccn1Cc1cccc(F)c1 [7-(3-Fluorobenzyl)-3-((1s,4s)-4-hydroxycyclohexyl)-[1,2,4]triazolo[4,3-a]pyrazin-8(7H)-one] | 1800 | 350 | 1000 |  |  | 
11 | O=c1c2nnc(C3COC3)n2ccn1Cc1cccc(F)c1 [7-(3-Fluorobenzyl)-3-(oxetan-3-yl)-[1,2,4]triazolo[4,3-a]pyrazin-8(7H)-one] |  | 1700 | 7200 | 67 |  | 
12 | CCCc1nnc2c(=O)n(Cc3cccc(F)c3)cc([C@H]3CCOC3)n12 (single isomer, unassigned) | 1610 | 260 | 2300 |  |  | 
13 | O=c1c2nnc(CC(F)(F)F)n2ccn1Cc1cccc(F)c1 [7-(3-Fluorobenzyl)-3-(2,2,2-trifluoroethyl)-[1,2,4]triazolo[4,3-a]pyrazin-8(7H)-one] | 2000 | 380 | 1400 |  |  | 
14 | O=c1c2nnc(C3CCOCC3)n2cc(Br)n1CC1CCCCC1 [6-bromo-7-(cyclohexylmethyl)-3-(tetrahydro-2H-pyran-4-yl)-[1,2,4]triazolo[4,3-a]pyrazin-8(7H)-one] | 12 | 3 | 17 |  |  | 
15 | CCCc1nnc2c(=O)n(Cc3cccc(F)c3)c([C@H]3CCOC3)cn12 (single isomer, unassigned) | 2980 | 290 | 1800 |  |  | 
16 | O=c1c2nnc(C3CCOCC3)n2cc(Cc2ccc(F)cc2)n1CC1CCCC1 [7-(cyclopentylmethyl)-6-(4-fluorobenzyl)-3-(tetrahydro-2H-pyran-4-yl)-[1,2,4]triazolo[4,3-a]pyrazin-8(7H)-one] | 142 | 12 | 140 |  |  | 
17 | O=c1c2nnc(C3CCOCC3)n2cc(Cc2ccccc2)n1Cc1cccc(F)c1 [6-benzyl-7-(3-fluorobenzyl)-3-(tetrahydro-2H-pyran-4-yl)-[1,2,4]triazolo[4,3-a]pyrazin-8(7H)-one] | 32 | 5 | 18 |  |  | 

Continued, values first:

Row | IC50 (PDE1A) [nM] | IC50 (PDE1C) [nM] | IC50 (PDE1B) [nM] | inhibition at 10 µM (PDE1A) [%] | inhibition at 10 µM (PDE1B) [%] | PDE1C inhibition (nM or %): % inhib (PDE1C; % inhibition of the enzyme at a concentration of 10 micro molar of the compound) [%] | Structure (SMILES)
18 | 320 | 240 | 260 |  |  |  | CCCc1nnc2c(=O)n(CC3CCCCC3C)ccn12 (mixture of isomers) [7-((2-methylcyclohexyl)methyl)-3-propyl-[1,2,4]triazolo[4,3-a]pyrazin-8(7H)-one]
19 |  | 1600 |  | 42 | 47 |  | CCCc1nnc2c(=O)n(CC3CCOCC3)ccn12 [3-Propyl-7-((tetrahydro-2H-pyran-4-yl)methyl)-[1,2,4]triazolo[4,3-a]pyrazin-8(7H)-one]
20 | 840 | 95 | 820 |  |  |  | CCCc1nnc2c(=O)n(CC3CCCC3)ccn12 [7-(Cyclopentylmethyl)-3-propyl-[1,2,4]triazolo[4,3-a]pyrazin-8(7H)-one]
21 | 79 | 120 | 40 |  |  |  | CCCc1nnc2c(=O)n(CC3CCC(C)CC3)ccn12 (single isomer, unassigned) [7-(((1 r,4r)-4-methylcyclohexyl)methyl)-3-propyl-[1,2,4]triazolo[4,3-a]pyrazin-8(7H)-one]
22 | 1500 | 170 | 1600 |  |  |  | CCCc1nnc2c(=O)n(Cc3cccc(C)c3)ccn12 [7-(3-Methylbenzyl)-3-propyl-[1,2,4]triazolo[4,3-a]pyrazin-8(7H)-one]
23 |  |  |  | 44 | 46 | 41 | CCCc1nnc2c(=O)n(Cc3ccccc3C(F)(F)F)ccn12 [3-Propyl-7-(2-(trifluoromethyl)benzyl)-[1,2,4]triazolo[4,3-a]pyrazin-8(7H)-one]
24 | 320 | 83 | 230 |  |  |  | CCCc1nnc2c(=O)n(CC3CCCC(C)C3)ccn12 (mixture of isomers) [7-((3-methylcyclohexyl)methyl)-3-propyl-[1,2,4]triazolo[4,3-a]pyrazin-8(7H)-one]
25 | 3600 | 1300 | 2000 |  |  |  | CCCc1nnc2c(=O)n(CC3CC3)ccn12 [7-(Cyclopropylmethyl)-3-propyl-[1,2,4]triazolo[4,3-a]pyrazin-8(7H)-one]
26 | 96 | 47 | 81 |  |  |  | CCCc1nnc2c(=O)n(CC3CCCCC3)ccn12 [7-(Cyclohexylmethyl)-3-propyl-[1,2,4]triazolo[4,3-a]pyrazin-8(7H)-one]
27 | 450 | 760 | 420 |  |  |  | CCCc1nnc2c(=O)n(CC3CCC(F)(F)CC3)ccn12 [7-((4,4-difluorocyclohexyl)methyl)-3-propyl-[1,2,4]triazolo[4,3-a]pyrazin-8(7H)-one]
28 |  | 1100 |  | 47 | 55 |  | CC(C)CCn1ccn2c(C3CCOCC3)nnc2c1=O [7-isopentyl-3-(tetrahydro-2H-pyran-4-yl)-[1,2,4]triazolo[4,3-a]pyrazin-8(7H)-one]
